Results reported in patent US9371320B2, “Heterocyclic compound” (TAKEDA PHARMACEUTICAL COMPANY LIMITED, priority 2012, dated 2016).
Where two headings read alike, the source gives them in different places.

Key:
[1] = target: T1, JAK1 (Homo sapiens, UniProt P23458); assay: JAK1 enzyme inhibition test (LANCE method); assay type: biochemical; details: for inhibition at 1 µM: read-out: Inhibitory rate (%) JAK1 1 μM; for inhibition at 10 µM: read-out: Inhibitory rate (%) JAK1 10 μM
T1 construct: purchased Invitrogen
Summary of the method: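 Reactions ran 1 h at room temperature in HEPES pH 7.5/MgCl2 buffer, with ATP solution at 150 μM and JAK1 and ULight peptide solutions at 187.5 ng/mL and 300 nM. Reactions were stopped with EDTA, and phosphorylation was read by Eu antibody time-resolved fluorescence at 665 nm. Inhibition was scaled to a no-enzyme control as 100%.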

[2] = target: T2, Tyk2 (Homo sapiens, UniProt P29597); assay: Tyk2 enzyme inhibition test (LANCE method); assay type: biochemical; details: for inhibition at 1 µM: read-out: Inhibitory rate (%) Tyk2 1 μM
T2 construct: purchased Invitrogen
Summary of the method: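 LANCE TR-FRET read-out (ex 340/em 665 nm, 100 μs delay) of ULight-JAK1 phosphorylation, with no-enzyme wells as 100% inhibition. Reaction run 1 h at room temperature in pH 7.5 HEPES buffer; enzyme 375 ng/mL, substrate 300 nM and ATP 30 μM are solution concentrations before mixing.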

[3] = test compound 10 μM (Ex. 182-220), beside Tyk2 1 μM

T2 sequence (P29597 whole entry): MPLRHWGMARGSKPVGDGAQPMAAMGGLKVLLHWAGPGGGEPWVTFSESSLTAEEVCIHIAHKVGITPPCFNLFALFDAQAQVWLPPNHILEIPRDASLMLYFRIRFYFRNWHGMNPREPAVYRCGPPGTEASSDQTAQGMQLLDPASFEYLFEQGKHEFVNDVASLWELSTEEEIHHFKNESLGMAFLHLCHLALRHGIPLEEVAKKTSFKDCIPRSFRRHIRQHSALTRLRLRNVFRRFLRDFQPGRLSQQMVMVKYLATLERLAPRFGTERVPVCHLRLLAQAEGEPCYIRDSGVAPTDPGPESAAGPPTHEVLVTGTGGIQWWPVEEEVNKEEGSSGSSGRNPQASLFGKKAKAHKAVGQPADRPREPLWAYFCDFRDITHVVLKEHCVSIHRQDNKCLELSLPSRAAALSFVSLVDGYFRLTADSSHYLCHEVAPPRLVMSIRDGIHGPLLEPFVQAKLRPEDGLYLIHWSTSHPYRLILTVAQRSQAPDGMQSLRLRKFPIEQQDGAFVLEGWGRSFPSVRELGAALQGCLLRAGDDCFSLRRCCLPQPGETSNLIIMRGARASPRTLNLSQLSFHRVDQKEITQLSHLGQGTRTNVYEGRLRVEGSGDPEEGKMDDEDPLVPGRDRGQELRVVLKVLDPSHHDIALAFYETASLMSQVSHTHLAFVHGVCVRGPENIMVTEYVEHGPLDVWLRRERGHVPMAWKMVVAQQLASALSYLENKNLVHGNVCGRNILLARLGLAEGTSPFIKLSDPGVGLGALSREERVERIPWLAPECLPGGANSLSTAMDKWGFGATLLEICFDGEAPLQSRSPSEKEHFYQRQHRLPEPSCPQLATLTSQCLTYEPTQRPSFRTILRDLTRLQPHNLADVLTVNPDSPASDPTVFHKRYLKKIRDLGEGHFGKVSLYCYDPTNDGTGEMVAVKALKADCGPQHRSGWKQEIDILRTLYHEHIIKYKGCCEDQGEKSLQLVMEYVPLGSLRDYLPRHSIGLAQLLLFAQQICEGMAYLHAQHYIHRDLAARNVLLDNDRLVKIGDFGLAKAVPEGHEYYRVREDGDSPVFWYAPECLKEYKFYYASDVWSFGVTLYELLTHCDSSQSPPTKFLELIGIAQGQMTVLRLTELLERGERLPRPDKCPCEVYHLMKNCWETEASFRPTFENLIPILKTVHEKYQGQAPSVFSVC
T1 sequence (P23458 whole entry): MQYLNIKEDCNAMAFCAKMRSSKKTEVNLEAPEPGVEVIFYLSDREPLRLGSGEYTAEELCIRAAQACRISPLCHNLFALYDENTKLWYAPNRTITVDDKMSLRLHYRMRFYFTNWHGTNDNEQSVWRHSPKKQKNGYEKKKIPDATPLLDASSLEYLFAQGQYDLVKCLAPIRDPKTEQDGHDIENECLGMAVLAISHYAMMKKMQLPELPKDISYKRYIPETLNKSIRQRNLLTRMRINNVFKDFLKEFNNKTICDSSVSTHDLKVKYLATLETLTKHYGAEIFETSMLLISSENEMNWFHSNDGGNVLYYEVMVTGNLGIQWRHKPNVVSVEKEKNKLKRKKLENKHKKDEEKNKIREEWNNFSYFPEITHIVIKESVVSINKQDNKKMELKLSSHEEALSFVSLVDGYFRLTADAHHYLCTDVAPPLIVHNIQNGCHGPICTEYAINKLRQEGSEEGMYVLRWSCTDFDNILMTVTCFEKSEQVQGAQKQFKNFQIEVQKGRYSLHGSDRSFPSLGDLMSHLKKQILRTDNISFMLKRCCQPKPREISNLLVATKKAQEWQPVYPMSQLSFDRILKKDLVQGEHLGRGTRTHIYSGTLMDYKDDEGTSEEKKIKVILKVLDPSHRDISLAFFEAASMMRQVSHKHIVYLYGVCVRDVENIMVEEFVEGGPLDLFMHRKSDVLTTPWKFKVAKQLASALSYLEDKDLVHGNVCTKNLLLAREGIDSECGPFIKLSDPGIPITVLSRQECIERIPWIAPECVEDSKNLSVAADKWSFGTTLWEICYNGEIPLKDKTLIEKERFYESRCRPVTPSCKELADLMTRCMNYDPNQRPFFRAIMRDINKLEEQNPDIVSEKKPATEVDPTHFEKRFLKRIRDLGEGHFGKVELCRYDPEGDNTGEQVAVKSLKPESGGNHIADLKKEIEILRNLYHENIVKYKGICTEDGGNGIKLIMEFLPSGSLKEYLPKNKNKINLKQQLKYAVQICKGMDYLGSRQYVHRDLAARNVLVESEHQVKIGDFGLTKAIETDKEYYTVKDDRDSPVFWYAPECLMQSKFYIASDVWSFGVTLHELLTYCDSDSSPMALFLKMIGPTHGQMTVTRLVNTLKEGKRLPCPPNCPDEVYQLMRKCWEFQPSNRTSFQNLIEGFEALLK

Compound NS(=O)(=O)c1ccc(-c2cn(C3CCCC3)c3cc[nH]c(=O)c23)cc1 [Example 2, 4-(1-cyclopentyl-4-oxo-4,5-dihydro-1H-pyrrolo[3,2-c]pyridin-3-yl)benzenesulfonamide] has an inhibition at 1 µM ([1]; test compound 1 μM) of 99% and an inhibition at 1 µM ([2]; test compound 1 μM) of 97%.
Work on N#Cc1c[nH]c(=O)c2c(-c3cn[nH]c3)cn(C3CCCC3)c12 [Example 111, 1-cyclopentyl-4-oxo-3-(1H-pyrazol-4-yl)-4,5-dihydro-1H-pyrrolo[3,2-c]pyridine-7-carbonitrile] yielded an inhibition at 1 µM ([1]; test compound 1 μM) of 96% and an inhibition at 1 µM ([2]; test compound 1 μM) of 99%.
Compound NC(=O)Cc1ccc(-c2nn(C3CCCC3)c3cc[nH]c(=O)c23)cc1 [Example 182, 2-(4-(1-cyclopentyl-4-oxo-4,5-dihydro-1H-pyrazolo[4,3-c]pyridin-3-yl)phenyl)acetamide] has an inhibition at 10 µM [1, 3] of 98% and an inhibition at 1 µM ([2]; test compound 1 μM) of 98%.
CNC(=O)c1cc(-c2cn(C3CCCC3)c3c(C(=O)NC)c[nH]c(=O)c23)cs1 [Example 63, 1-cyclopentyl-N-methyl-3-(5-(methylcarbamoyl)-3-thienyl)-4-oxo-4,5-dihydro-1H-pyrrolo[3,2-c]pyridine-7-carboxamide] gave an inhibition at 1 µM ([1]; test compound 1 μM) of 59% and an inhibition at 1 µM ([2]; test compound 1 μM) of 51%.
For NS(=O)(=O)c1ccc(-c2nn(C3CCC(=O)CC3)c3cc[nH]c(=O)c23)cc1 [Example 173, 4-(4-oxo-1-(4-oxocyclohexyl)-4,5-dihydro-1H-pyrazolo[4,3-c]pyridin-3-yl)benzenesulfonamide], the inhibition at 1 µM ([1]; test compound 1 μM) was 99% and the inhibition at 1 µM ([2]; test compound 1 μM) was 96%.
In the case of CC(=O)Nc1cccc(-c2cn(C3CCCC3)c3c(C#N)c[nH]c(=O)c23)c1 [Example 130, N-(3-(7-cyano-1-cyclopentyl-4-oxo-4,5-dihydro-1H-pyrrolo[3,2-c]pyridin-3-yl)phenyl)acetamide], the inhibition at 1 µM ([1]; test compound 1 μM) is reported as 76% and the inhibition at 1 µM ([2]; test compound 1 μM) is reported as 96%.
Work on O=c1[nH]ccc2c1c(-c1ccsc1)cn2C1CCCC1 [Example 5, 1-cyclopentyl-3-(3-thienyl)-1,5-dihydro-4H-pyrrolo[3,2-c]pyridin-4-one] yielded an inhibition at 1 µM ([1]; test compound 1 μM) of 97% and an inhibition at 1 µM ([2]; test compound 1 μM) of 96%.
For N#Cc1c[nH]c(=O)c2c(-c3cccnc3)cn(C3CCCC3)c12 [Example 133, 1-cyclopentyl-4-oxo-3-(pyridin-3-yl)-4,5-dihydro-1H-pyrrolo[3,2-c]pyridine-7-carbonitrile], the inhibition at 1 µM ([1]; test compound 1 μM) was 47% and the inhibition at 1 µM ([2]; test compound 1 μM) was 90%.
NC(=O)COc1ccc(-c2nn(-c3c(F)cccc3F)c3c(Cl)c[nH]c(=O)c23)cc1 [Example 169, 2-(4-(7-chloro-1-(2,6-difluorophenyl)-4-oxo-4,5-dihydro-1H-pyrazolo[4,3-c]pyridin-3-yl)phenoxy)acetamide] gave an inhibition at 1 µM ([1]; test compound 1 μM) of 79% and an inhibition at 1 µM ([2]; test compound 1 μM) of 99%.
CN1CCN(c2ccc(-c3nn(-c4c(F)cccc4F)c4cc[nH]c(=O)c34)cc2)C1=O [Example 240, 1-(2,6-difluorophenyl)-3-(4-(3-methyl-2-oxoimidazolidin-1-yl)phenyl)-1,5-dihydro-4H-pyrazolo[4,3-c]pyridin-4-one] gave an inhibition at 1 µM ([1]; test compound 1 μM) of 88% and an inhibition at 1 µM ([2]; test compound 1 μM) of 99%.
With CCC(CC)n1cc(-c2csc(C(N)=O)c2)c2c(=O)[nH]ccc21 [Example 8, 4-(4-oxo-1-(pentan-3-yl)-4,5-dihydro-1H-pyrrolo[3,2-c]pyridin-3-yl)thiophene-2-carboxamide] the inhibition at 1 µM ([1]; test compound 1 μM) was 98% and the inhibition at 1 µM ([2]; test compound 1 μM) was 98%.
NC(=O)c1cc(-c2nn(C3CCOCC3)c3cc[nH]c(=O)c23)cs1 [Example 27, 4-(4-oxo-1-(tetrahydro-2H-pyran-4-yl)-4,5-dihydro-1H-pyrazolo[4,3-c]pyridin-3-yl)thiophene-2-carboxamide] showed an inhibition at 1 µM ([1]; test compound 1 μM) of 98% and an inhibition at 1 µM ([2]; test compound 1 μM) of 98%.
Work on CN(C)C(=O)c1cc(-c2cn(C3CCCC3)c3c(C#N)c[nH]c(=O)c23)cs1 [Example 107, 4-(7-cyano-1-cyclopentyl-4-oxo-4,5-dihydro-1H-pyrrolo[3,2-c]pyridin-3-yl)-N,N-dimethylthiophene-2-carboxamide] yielded an inhibition at 1 µM ([1]; test compound 1 μM) of 96% and an inhibition at 1 µM ([2]; test compound 1 μM) of 98%.
For CCC(CC)n1nc(-c2csc(C(N)=O)c2)c2c(=O)[nH]ccc21 [Example 149, 4-(4-oxo-1-(pentan-3-yl)-4,5-dihydro-1H-pyrazolo[4,3-c]pyridin-3-yl)thiophene-2-carboxamide], the inhibition at 1 µM ([1]; test compound 1 μM) was 100% and the inhibition at 1 µM ([2]; test compound 1 μM) was 99%.
Compound NS(=O)(=O)c1ccc(-c2nn(-c3ccccc3Cl)c3cc[nH]c(=O)c23)cc1 [Example 214, 4-(1-(2-chlorophenyl)-4-oxo-4,5-dihydro-1H-pyrazolo[4,3-c]pyridin-3-yl)benzenesulfonamide] has an inhibition at 10 µM [1, 3] of 99% and an inhibition at 1 µM ([2]; test compound 1 μM) of 99%.
CNC(=O)c1cc(-c2nn(-c3c(F)cccc3F)c3c(Cl)c[nH]c(=O)c23)cs1 [Example 162, 4-(7-chloro-1-(2,6-difluorophenyl)-4-oxo-4,5-dihydro-1H-pyrazolo[4,3-c]pyridin-3-yl)-N-methylthiophene-2-carboxamide] was tested, and the inhibition at 1 µM ([1]; test compound 1 μM) was 99% and the inhibition at 1 µM ([2]; test compound 1 μM) was 99%.
O=c1[nH]ccc2c1c(-c1ccc(C(F)(F)F)cc1)nn2C1CCCC1 [Example 51, 1-cyclopentyl-3-(4-(trifluoromethyl)phenyl)-1,5-dihydro-4H-pyrazolo[4,3-c]pyridin-4-one] showed an inhibition at 1 µM ([1]; test compound 1 μM) of 90% and an inhibition at 1 µM ([2]; test compound 1 μM) of 84%.
Work on CCNC(=O)c1cc(-c2cn(C3CCCC3)c3c(C#N)c[nH]c(=O)c23)cs1 [Example 122, 4-(7-cyano-1-cyclopentyl-4-oxo-4,5-dihydro-1H-pyrrolo[3,2-c]pyridin-3-yl)-N-ethylthiophene-2-carboxamide] yielded an inhibition at 1 µM ([1]; test compound 1 μM) of 99% and an inhibition at 1 µM ([2]; test compound 1 μM) of 100%.
O=c1[nH]ccc2c1c(-c1ccccc1C(F)(F)F)nn2C1CCCC1 [Example 53, 1-cyclopentyl-3-(2-(trifluoromethyl)phenyl)-1,5-dihydro-4H-pyrazolo[4,3-c]pyridin-4-one] gave an inhibition at 10 µM ([1]; test compound 10 μM) of 10% and an inhibition at 10 µM ([2]; test compound 10 μM, read-out: Inhibitory rate (%) Tyk2 10 μM) of 28%.
NS(=O)(=O)c1ccc(-c2nn(-c3ccccc3F)c3cc[nH]c(=O)c23)cc1 [Example 213, 4-(1-(2-fluorophenyl)-4-oxo-4,5-dihydro-1H-pyrazolo[4,3-c]pyridin-3-yl)benzenesulfonamide] gave an inhibition at 10 µM [1, 3] of 98% and an inhibition at 1 µM ([2]; test compound 1 μM) of 99%.
Work on CNS(=O)(=O)c1ccc(-c2nn(C3CCCC3)c3cc[nH]c(=O)c23)cc1 [Example 223, 4-(1-cyclopentyl-4-oxo-4,5-dihydro-1H-pyrazolo[4,3-c]pyridin-3-yl)-N-methylbenzenesulfonamide] yielded an inhibition at 1 µM ([1]; test compound 1 μM) of 99% and an inhibition at 1 µM ([2]; test compound 1 μM) of 97%.
For NC(=O)c1cc(-c2nn(C3CCCC3)c3cc[nH]c(=O)c23)cs1 [Example 13, 4-(1-cyclopentyl-4-oxo-4,5-dihydro-1H-pyrazolo[4,3-c]pyridin-3-yl)thiophene-2-carboxamide], the inhibition at 1 µM ([1]; test compound 1 μM) was 99% and the inhibition at 1 µM ([2]; test compound 1 μM) was 99%.
In the case of COc1cc(N)cc(F)c1-n1cc(-c2csc(C(N)=O)c2)c2c(=O)[nH]ccc21 [Example 302, 4-(1-(4-amino-2-fluoro-6-methoxyphenyl)-4-oxo-4,5-dihydro-1H-pyrrolo[3,2-c]pyridin-3-yl)thiophene-2-carboxamide], the inhibition at 1 µM ([1]; test compound 1 μM) is reported as 97% and the inhibition at 1 µM ([2]; test compound 1 μM) is reported as 95%.
With NS(=O)(=O)c1ccc(-c2nn(C3CCCCC3)c3cc[nH]c(=O)c23)cc1 [Example 6, 4-(1-cyclohexyl-4-oxo-4,5-dihydro-1H-pyrazolo[4,3-c]pyridin-3-yl)benzenesulfonamide] the inhibition at 1 µM ([1]; test compound 1 μM) was 98% and the inhibition at 1 µM ([2]; test compound 1 μM) was 99%.
In the case of N#Cc1cccc(-c2nn(C3CCCC3)c3cc[nH]c(=O)c23)c1 [Example 202, 3-(1-cyclopentyl-4-oxo-4,5-dihydro-1H-pyrazolo[4,3-c]pyridin-3-yl)benzonitrile], the inhibition at 10 µM [1, 3] is reported as 80% and the inhibition at 1 µM ([2]; test compound 1 μM) is reported as 87%.
Cc1ccc(-c2nn(C3CCCC3)c3cc[nH]c(=O)c23)cc1 [Example 50, 1-cyclopentyl-3-(4-methylphenyl)-1,5-dihydro-4H-pyrazolo[4,3-c]pyridin-4-one] showed an inhibition at 1 µM ([1]; test compound 1 μM) of 92% and an inhibition at 1 µM ([2]; test compound 1 μM) of 92%.
Work on O=c1[nH]cc(Cl)c2c1c(-c1ccc(N3CCOCC3)c(F)c1)nn2-c1c(F)cccc1F [Example 206, 7-chloro-1-(2,6-difluorophenyl)-3-(3-fluoro-4-(morpholin-4-yl)phenyl)-1,5-dihydro-4H-pyrazolo[4,3-c]pyridin-4-one] yielded an inhibition at 10 µM [1, 3] of 45% and an inhibition at 1 µM ([2]; test compound 1 μM) of 100%.
With NC(=O)c1ccc(-c2nn(-c3c(F)cccc3F)c3c(Cl)c[nH]c(=O)c23)cc1F [Example 215, 4-(7-chloro-1-(2,6-difluorophenyl)-4-oxo-4,5-dihydro-1H-pyrazolo[4,3-c]pyridin-3-yl)-2-fluorobenzamide] the inhibition at 10 µM [1, 3] was 22% and the inhibition at 1 µM ([2]; test compound 1 μM) was 94%.
For NS(=O)(=O)c1ccc(-c2nn(C3CCOC3)c3cc[nH]c(=O)c23)cc1 (stereo not drawn) [Example 84, 4-(4-oxo-1-(tetrahydrofuran-3-yl)-4,5-dihydro-1H-pyrazolo[4,3-c]pyridin-3-yl)benzenesulfonamide], the “Inhibitory rate (%) JAK1 1 μM” value ([1]; test compound 1 μM) was 84% and the “Inhibitory rate (%) Tyk2 1 μM” value ([2]; test compound 1 μM) was 58%.
Compound CCC1(O)CCC(n2nc(-c3ccc(S(N)(=O)=O)cc3)c3c(=O)[nH]ccc32)CC1 (stereo not drawn) [Example 209, 4-(1-(4-ethyl-4-hydroxycyclohexyl)-4-oxo-4,5-dihydro-1H-pyrazolo[4,3-c]pyridin-3-yl)benzenesulfonamide] has an inhibition at 10 µM [1, 3] of 99% and an inhibition at 1 µM ([2]; test compound 1 μM) of 99%.
